From patent publication US20250281517A1, “SENOLYSIS BY AMMONIA-LOWERING COMPONENT” (TAZ Inc., priority 2022, published 2025)

Legend:
[1] = system: p21; assay: mRNA expression level of p21, a marker of senescent cells, in tissues of aged mice (real-time RT-PCR, GAPDH as internal standard); format: in vivo; conditions: aged male C57BL/6J mice (78 weeks old), test substance in drinking water ad libitum for one month, compared to aged mice having no additional administration
Procedure: (§1) As animals, experiments was performed using 7 young mice (male C57BL/6J mice, 7 weeks old) and 28 aged mice (male C57BL/6J-Aged mice, 78 weeks old).
(§2) Group 1 was constituted of young mice, and aged mice were divided into 4 groups each consisting of 7 mice (Groups 2 to 5) and the experimental conditions of individual groups are set as shown in the Table below.
(§3) As explained below, water comprising a test substance was given to the mice of Group 3 to Group 5.
The each types of drinking water which were prepared by adding a test substance as mentioned above was given to mice of each of the groups ad libitum, and the test substance was orally administered for one month. One month after the initiation of the experiment, all mice were sacrificed and dissected. […]
(§4) The RNA was purified with 75% ethanol, evaporated to dry under reduced pressure, and dissolved in 50 micro l of RNA-free water. Using NanoDrop ND-1000 (NanoDrop Technologies), absorbance was measured at 260 nm and 280 nm to determination of an absorbance ratio (A260/280 nm), RNA purity was confirmed by checking whether or not the absorbance ratio falls within the range of 1.9 to 2.1.
Quantitative real-time PCR was performed using total RNA extracted from the tissue for analysis of mRNA expressions of senescence markers p16 and p21 commonly known in the technical field. […]

[2] = system: p16; assay: mRNA expression level of p16, a marker of senescent cells, in tissues of aged mice (real-time RT-PCR, GAPDH as internal standard); format: in vivo; conditions: aged male C57BL/6J mice (78 weeks old), test substance in drinking water ad libitum for one month, compared to aged mice having no additional administration; for mRNA expression level of marker p16 for senescent cells in the hippocampus: FIG. 3
Procedure: as §1, §2, §3
The each types of drinking water which were prepared by adding a test substance as mentioned above was given to mice of each of the groups ad libitum, and the test substance was orally administered for one month. One month after the initiation of the experiment, all mice were sacrificed and dissected. From each of the mice, the liver, kidney, hippocampus and skeletal muscle were collected for measurement markers for senescent cells.
The tissues were collected from mice at the time of dissection and soaked in RNAlater (Ambion) overnight and thereafter stored at −80° C. Total RNA was extracted from the liver tissue by the TRIzol-chroloform method.
The tissue extracted from RNAlater (50 to 100 mg) was put in 1 ml of TRIzol Reagent (Invitrogen Life Technologies), crushed. After standing still at room temperature for 5 minutes, 0.2 ml of chloroform was added and stirred. After standing still at room temperature for 2 to 3 minutes, the mixture was centrifuged at 4° C. and 12,000×g for 15 minutes. The upper layer (250 micro l) was recovered and 0.5 ml of isopropanol was added. […]
as §4
Quantitative real-time PCR was performed using total RNA extracted from the tissue for analysis of mRNA expressions of senescence markers p16 and p21 commonly known in the technical field.
From the total RNA, CDNA was synthesized using PrimeScript (Registered trademark) RT reagent Kit (Perfect Real Time) in accordance with the protocol of the manufacturer. Then, CDNA was amplified by Thermal Cycler Dice Real Time System TP800 (Takara Bio) and fluorescence was detected by SYBR (Registered trademark) Premix Ex Taq™ (Perfect Real Time) and real-time PCR detection system (Takara Bio). […]
Using the mRNA expression of glyceraldehyde-3-phosphate dehydrogenase (GAPDH) as an internal standard for correction, the relative values of mRNAs of interest were calculated. […]

| SMILES | mRNA expression level of marker p21 for senescent cells in the kidney ([1]; kidney, FIG. 1) | mRNA expression level of marker p21 for senescent cells in the liver ([1]; liver, FIG. 2, upper panel) | mRNA expression level of marker p16 for senescent cells in the hippocampus [2] | mRNA expression level of marker p16 for senescent cells in the liver ([2]; liver, FIG. 2, lower panel) | mRNA expression level of marker p16 for senescent cells in the skeletal muscle ([2]; skeletal muscle, FIG. 4) |
| --- | --- | --- | --- | --- | --- |
| OC[C@H]1O[C@@H](O[C@@H]2[C@@H](CO)OC(O)(CO)[C@H]2O)[C@H](O)[C@@H](O)[C@H]1O (mixture of isomers) [lactulose] | significantly decreased | tended to decrease | decreased, although not significantly | significantly decreased | decreased, although not significantly |
| Cl.NCCC[C@H](N)C(=O)O [ornithine, L-ornithine hydrochloride] |  |  | decreased, although not significantly |  |  |
